According to patent publication US20240197688A1, “COMBINATION MEDICINE FOR PREVENTING/TREATING DYSLIPIDEMIA OR CARDIOVASCULAR DISEASE” (KOWA COMPANY, LTD., priority 2021, published 2024):

Columns and labels:
Format in all cases: in vivo
[1] = test system: Wistar rat; assay: Effect of combination use of compound A and compound B on TG index of rat; details: male Wistar rat, oral once a day for 2 weeks; compound A 0.3 mg/kg, compound B 30 mg/kg, alone or in combination; actual value
Excerpt: Male rats (7-week-old, Wistar [Crlj: WI], Charles River Laboratories Japan, Inc.) were used for an experiment. Blood was collected from the jugular vein under satiation, and the rats were divided into four groups (N=6) based on TG and TC in the plasma and body weights. For two weeks from the next day of the grouping, each of a solvent (0.5% carboxymethyl cellulose aqueous solution: CMC), a compound A (pemafibrate) alone, a compound B (bempedoic acid) alone, and a combination of pemafibrate and bempedoic acid was orally administered once per day. After four hours from the final administration of the drug, blood was collected under isoflurane anesthesia to obtain plasma. Parameters in the blood were measured using an automated analyzer (Labospect 003, Hitachi High-Technologies Corporation). A lipid content in the liver was measured using the method described in J. Biol. Chem. 226 (1), 497-509 (1957) (FOLCH method). A TG index (%) was expressed as a ratio of a product of a blood TG concentration and a TG content in the liver of a sample to that of Control. In the present Example, the compound A was prepared and used according to the method described in Patent Document 1. […] Comparison between the control group and each of the drug administration groups was performed by a multiple comparison test of Dunnett, and a risk rate of less than 5% was determined to have a significant difference.

[2] = test system: PPARα gene; assay: Effect of combination use on expression level of PPARα gene in liver of rat (quantitative PCR); details: male Wistar rat, oral once a day for 2 weeks; compound A 0.3 mg/kg, compound B 30 mg/kg, alone or in combination; β-actin internal standard; actual value
Excerpt: Male rats (7-week-old, Wistar [Crlj: WI], Charles River Laboratories Japan, Inc.) were used for an experiment. Blood was collected from the jugular vein under satiation, and the rats were divided into four groups (N=6) based on TG and TC in the plasma and body weights. For two weeks from the next day of the grouping, each of a solvent (0.5% carboxymethyl cellulose aqueous solution: CMC), a compound A (pemafibrate) alone, a compound B (bempedoic acid) alone, and a combination of pemafibrate and bempedoic acid was orally administered once per day. After four hours from the final administration of the drug, blood was collected under isoflurane anesthesia to obtain the liver. RNA in the liver was extracted using ISOGEN (Nippon Gene Co., Ltd.), and cDNA was prepared using a high-capacity cDNA reverse transcription kit (Thermo Fischer Scientific). Quantitative PCR (polymerase chain reaction) was performed using the prepared cDNA, and the relative value of the expression level of the PPARα gene was calculated using β-actin gene as an internal standard. […]
The results were presented by an average value standard error. Comparison between the control group and each of the drug administration groups was performed by a multiple comparison test of Dunnett, and a risk rate of less than 5% was determined to have a significant difference.

[3] = test system: db/db mice; assay: Effect of combination use on total cholesterol content in liver of db/db mice; details: male db/db mice, oral once a day for 2 weeks; compound A 0.3 mg/kg, compound B 10 mg/kg, alone or in combination
Excerpt: Male mice (8-week-old, db/db: BKS.Cg−+Leprdb/+Leprdb/Jcl, Lean: BKS. Cg−m+/m+/Jcl, CLEA Japan, Inc.) were used for an experiment. They were divided into four groups (N=8) based on body weights. For two weeks from the next day of the grouping, each of a solvent (0.5% methylcellulose aqueous solution: MC), a compound A (pemafibrate) alone, a compound B (bempedoic acid) alone, and a combination of pemafibrate and bempedoic acid was orally administered once per day. After four hours from the final administration of the drug, the liver was extracted under isoflurane anesthesia, and the TC concentration in the liver was measured using the FOLCH method described above. • Group 1: Control (Solvent Only) • Group 2: 0.3 mg/kg of Compound A • Group 3: 10 mg/kg of Compound B • Group 4: 0.3 mg/kg of Compound A and 10 mg/kg of Compound B The results were presented by an average value±standard error. Comparison between the control group and each of the drug administration groups was performed by a multiple comparison test of Tukey, and a risk rate of less than 5% was determined to have a significant difference.

| Structure (SMILES) | TG index (ratio of product of blood TG concentration and liver TG content to that of Control) [1] | expression level of PPARα gene (Ppara) in the liver relative to Control [2] | total cholesterol content in the liver compared to Control [3] |
| --- | --- | --- | --- |
| CC[C@@H](Oc1cccc(CN(CCCOc2ccc(OC)cc2)c2nc3ccccc3o2)c1)C(=O)O [compound A, (R)-2-[3-[[N-(benzoxazole-2-yl)-N-3-(4-methoxyphenoxy)propyl]aminomethyl]phenoxy]butyric acid] | 65.4% | 1.17 times | 86.2% |
| CC(C)(CCCCCC(O)CCCCCC(C)(C)C(=O)O)C(=O)O [compound B, 8-hydroxy-2,2,14,14-tetramethylpentadecanedioic acid] | 60.6% | 1.22 times | 87.0% |
